One assay deals with Recombinant human BRD4(1-477) (Homo sapiens (Human), UniProt O60885). The assay is described as follows: BRD4 TR-FRET biochemical IC50 assay. In kind it is binding. Particulars: TR-FRET, tetra-acetylated histone peptide; read-out: BRD4 IC50. A general note: Time-resolved FRET reads energy transfer from a long-lived donor to a nearby acceptor.
As usually defined, the IC50 is the concentration that inhibits the measured activity by half. `Cc1noc(C)c1-c1ccc2c(c1)C(NCCC(C)C)(C1CCCCC1)C(=O)N2` (stereo not drawn) [Compound 2.25, 3-cyclohexyl-5-(3,5-dimethylisoxazol-4-yl)-3-(isopentylamino)indolin-2-one]: the IC50 was 3700 nM.

On to `Cc1noc(C)c1-c1ccc2c(c1)C(C1CCCCC1)(N1CCC[C@@H](O)C1)C(=O)N2` (stereo partly drawn) [Compound 2.30, 3-cyclohexyl-5-(3,5-dimethylisoxazol-4-yl)-3-((R)-3-hydroxypiperidin-1-yl)indolin-2-one], for which the IC50 was found to be 61 nM. For the compound `Cc1noc(C)c1-c1ccc2c(c1)C(C1CCCCC1)(N1CCC(O)CC1)C(=O)N2` (stereo not drawn) [Compound 2.31, 3-cyclohexyl-5-(3,5-dimethylisoxazol-4-yl)-3-(4-hydroxypiperidin-1-yl)indolin-2-one], the IC50 was determined as 37 nM.

As for `Cc1noc(C)c1-c1ccc2c(c1)C(C1CCCCC1)(N1CCCC(O)C1)C(=O)N2` (stereo not drawn) [Compound 2.32, 3-cyclohexyl-5-(3,5-dimethylisoxazol-4-yl)-3-(3-hydroxypiperidin-1-yl)indolin-2-one], the IC50 was 60 nM. The same measure, in the same setting: the same measure for `Cc1noc(C)c1-c1ccc2c(c1)C(C1CCCCC1)(N1CC(O)C1)C(=O)N2` (stereo not drawn) [Compound 2.33, 3-cyclohexyl-5-(3,5-dimethylisoxazol-4-yl)-3-(3-hydroxyazetidin-1-yl)indolin-2-one]: 120 nM; for `Cc1noc(C)c1-c1ccc2c(c1)C(N)(C1CCCCC1)C(=O)N2` (stereo not drawn) [Compound 2.37, 3-amino-3-cyclohexyl-5-(3,5-dimethylisoxazol-4-yl)indolin-2-one]: 93 nM; for `Cc1noc(C)c1-c1ccc2c(c1)[C@@](N)(C1CCCCC1)C(=O)N2` [Compound 2.37a, (S)-3-amino-3-cyclohexyl-5-(3,5-dimethylisoxazol-4-yl)indolin-2-one]: 54 nM. The same measure, in the same setting: the same measure for `Cc1noc(C)c1-c1ccc2c(c1)C(c1ccccc1)(N1CC[C@@H](NC(=O)OC(C)(C)C)C1)C(=O)N2` (stereo partly drawn) [Compound 2.41, Tert-butyl (3r)-1-(5-(3,5-dimethylisoxazol-4-yl)-2-oxo-3-phenylindolin-3-yl)pyrrolidin-3-ylcarbamate]: 440 nM; for `Cc1noc(C)c1-c1ccc2c(c1)C(c1ccccc1)(N1CC[C@@H](N)C1)C(=O)N2` (stereo partly drawn) [Compound 2.42, 3-((R)-3-aminopyrrolidin-1-yl)-5-(3,5-dimethylisoxazol-4-yl)-3-phenylindolin-2-one]: 27 nM; for `Cc1noc(C)c1-c1ccc2c(c1)C(c1ccccc1)(N1CCC[C@@H](NC(=O)OC(C)(C)C)C1)C(=O)N2` (stereo partly drawn) [Compound 2.43]: 510 nM. As for `Cc1noc(C)c1-c1ccc2c(c1)C(c1ccccc1)(N1CCC[C@H](NC(=O)OC(C)(C)C)C1)C(=O)N2` (stereo partly drawn) [Compound 2.44, Tert-butyl (3s)-1-(5-(3,5-dimethylisoxazol-4-yl)-2-oxo-3-phenylindolin-3-yl)piperidin-3-ylcarbamate], the IC50 stood at 1100 nM. Same read-out and setting: for `Cc1noc(C)c1-c1ccc2c(c1)C(c1ccccc1)(N1CCC[C@@H](N)C1)C(=O)N2` (stereo partly drawn) [Compound 2.45, 3-((R)-3-aminopiperidin-1-yl)-5-(3,5-dimethylisoxazol-4-yl)-3-phenylindolin-2-one] the value was 26 nM. On the same count and under the same terms, the same measure for `CCOC(=O)CN1CCN(C2(c3ccccc3)C(=O)Nc3ccc(-c4c(C)noc4C)cc32)CC1` (stereo not drawn) [Compound 2.47, Ethyl 2-(4-(5-(3,5-dimethylisoxazol-4-yl)-2-oxo-3-phenylindolin-3-yl)piperazin-1-yl)acetate]: 54 nM; for `Cc1noc(C)c1-c1ccc2c(c1)C(c1ccccc1)(N1CCN(CCO)CC1)C(=O)N2` (stereo not drawn) [Compound 2.48, 5-(3,5-Dimethylisoxazol-4-yl)-3-(4-(2-hydroxyethyl)piperazin-1-yl)-3-phenylindolin-2-one]: 80 nM.

For the compound `Cc1noc(C)c1-c1ccc2c(c1)C(c1ccccc1)(N1CCN(CCCO)CC1)C(=O)N2` (stereo not drawn) [Compound 2.49, 5-(3,5-Dimethylisoxazol-4-yl)-3-(4-(3-hydroxypropyl)piperazin-1-yl)-3-phenylindolin-2-one], the IC50 was found to be 84 nM. Still for that read-out and setting: for `Cc1noc(C)c1-c1ccc2c(c1)C(c1ccccc1)(N1CCC[C@H]1CO)C(=O)N2` (stereo partly drawn) [Compound 2.53, 5-(3,5-Dimethylisoxazol-4-yl)-3-((s)-2-(hydroxymethyl)pyrrolidin-1-yl)-3-phenylindolin-2-one] the value was 90 nM; for `Cc1noc(C)c1-c1ccc2c(c1)C(c1ccccc1)(N1CCC[C@@H]1CO)C(=O)N2` (stereo partly drawn) [Compound 2.55, 5-(3,5-Dimethylisoxazol-4-yl)-3-((r)-2-(hydroxymethyl)pyrrolidin-1-yl)-3-phenylindolin-2-one], 110 nM; for `COC(=O)[C@@H](Cc1cnc[nH]1)NC1(c2ccccc2)C(=O)Nc2ccc(-c3c(C)noc3C)cc21` (stereo partly drawn) [Compound 2.56, (2R)-Methyl 2-(5-(3,5-dimethylisoxazol-4-yl)-2-oxo-3-phenylindolin-3-ylamino)-3-(1h-imidazol-5-yl)propanoate], 260 nM. For the compound `COC(=O)[C@H](Cc1cnc[nH]1)NC1(c2ccccc2)C(=O)Nc2ccc(-c3c(C)noc3C)cc21` (stereo partly drawn) [Compound 2.57, (2S)-Methyl 2-(5-(3,5-dimethylisoxazol-4-yl)-2-oxo-3-phenylindolin-3-ylamino)-3-(1h-imidazol-5-yl)propanoate], the IC50 came out at 90 nM. Still for that read-out and setting: the same measure for `Cc1noc(C)c1-c1ccc2c(c1)C(N)(c1ccc(F)cc1)C(=O)N2` (stereo not drawn) [Compound 2.59, 3-amino-5-(3,5-dimethylisoxazol-4-yl)-3-(4-fluorophenyl)indolin-2-one]: 97 nM. For `Cc1noc(C)c1-c1ccc2c(c1)C(CC(=O)O)(c1ccccc1)C(=O)N2` (stereo not drawn) [Compound 3.4, 2-(5-(3,5-dimethylisoxazol-4-yl)-2-oxo-3-phenylindolin-3-yl)acetic acid], the concentration for half-maximal inhibition (IC50) was determined as 6100 nM. On the same count and under the same terms, for `CC(=O)CC1(O)C(=O)Nc2ccc(-c3c(C)noc3C)cc21` (stereo not drawn) [Compound 4.2, 5-(3,5-dimethylisoxazol-4-yl)-3-hydroxy-3-(2-oxopropyl)indolin-2-one] the value was 670 nM.

As for `Cc1noc(C)c1-c1ccc2c(c1)C(NCCO)(c1ccsc1)C(=O)N2` (stereo not drawn) [Compound 4.3, 5-(3,5-Dimethylisoxazol-4-yl)-3-(2-hydroxyethylamino)-3-(thiophen-3-yl)indolin-2-one], the IC50 was determined as 49 nM. On the same count and under the same terms, for `Cc1noc(C)c1-c1ccc2c(c1)C(N)(c1ccsc1)C(=O)N2` (stereo not drawn) [Compound 4.4, 3-AMINO-5-(3,5-DIMETHYLISOXAZOL-4-YL)-3-(THIOPHEN-3-YL)INDOLIN-2-ONE] the value was 400 nM; for `Cc1noc(C)c1-c1ccc2c(c1)C(c1ccsc1)(N1CCC(O)CC1)C(=O)N2` (stereo not drawn) [Compound 4.5, 5-(3,5-DIMETHYLISOXAZOL-4-YL)-3-(4-HYDROXYPIPERIDIN-1-YL)-3-(THIOPHEN-3-YL)INDOLIN-2-ONE], 25 nM. Regarding `Cc1noc(C)c1-c1ccc2c(c1)C(c1ccsc1)C(=O)N2` (stereo not drawn) [Compound 4.11, 5-(3,5-Dimethylisoxazol-4-yl)-3-(thiophen-3-yl)indolin-2-one], the IC50 is 120 nM. The same measure, in the same setting: for `COc1cc(-c2c(C)noc2C)cc2c1NC(=O)C2(O)c1ccccc1` (stereo not drawn) [Compound 5.1, 5-(3,5-Dimethylisoxazol-4-yl)-3-hydroxy-7-methoxy-3-phenylindolin-2-one] the value was 450 nM.

A further assay concerns MV4-11. Kind of assay: MV4-11 (3 Days) EC50. In kind it is cell-based.
Conditions: not given
A word on the EC50: it is the midpoint of the concentration-response curve. Low readings indicate an effect from little substance, high ones a need for much substance. For the compound `Cc1noc(C)c1-c1ccc2c(c1)C(c1ccsc1)(N1CCC[C@@H](O)C1)C(=O)N2` (single isomer, unassigned) [Compound 4.9b], the EC50 is 39 nM.

`Cc1noc(C)c1-c1ccc2c(c1)C(c1ccsc1)(N1CCC[C@H](O)C1)C(=O)N2` (single isomer, unassigned) [Compound 4.10b] registered an EC50 of 56 nM.

Staying with this assay, now noted: Homo sapiens, MV4-11, 72 h.
`Cc1noc(C)c1-c1ccc2c(c1)C(c1ccsc1)(N1CCC[C@@H](O)C1)C(=O)N2` (single isomer, unassigned) [Compound 4.9a] came in with an EC50 of 54 nM. Same read-out and setting: the same measure for `Cc1noc(C)c1-c1ccc2c(c1)C(c1ccsc1)(N1CCC[C@H](O)C1)C(=O)N2` (single isomer, unassigned) [Compound 4.10a]: 72 nM; for `C=CCCC1(O)C(=O)Nc2ccc(-c3c(C)noc3C)cc21` (stereo not drawn) [Compound 1.24, 3-(but-3-enyl)-5-(3,5-dimethylisoxazol-4-yl)-3-hydroxyindolin-2-one]: 934 nM; for `C=CCCCC1(O)C(=O)Nc2ccc(-c3c(C)noc3C)cc21` (stereo not drawn) [Compound 1.25, 5-(3,5-dimethylisoxazol-4-yl)-3-hydroxy-3-(pent-4-enyl)indolin-2-one]: 1540 nM.

With `Cc1noc(C)c1-c1ccc2c(c1)C(OCCO)(C1CCCCC1)C(=O)N2` (stereo not drawn) [Compound 1.33, 3-Cyclohexyl-5-(3,5-dimethylisoxazol-4-yl)-3-(2-hydroxyethoxy)indolin-2-one], the response was half-maximal at 307 nM (EC50).

The compound `Cc1noc(C)c1-c1ccc2c(c1)C(N)(c1ccccc1)C(=O)N2` (stereo not drawn) [Compound 2.2, 3-amino-5-(3,5-dimethylisoxazol-4-yl)-3-phenylindolin-2-one] returned an EC50 of 283 nM.

`Cc1noc(C)c1-c1ccc2c(c1)C(c1ccccc1)(N1CCCC(O)C1)C(=O)N2` (stereo not drawn) [Compound 2.15, 5-(3,5-dimethylisoxazol-4-yl)-3-(3-hydroxypiperidin-1-yl)-3-phenylindolin-2-one] came in with an EC50 of 95 nM. Same read-out and setting: the same measure for `Cc1noc(C)c1-c1ccc2c(c1)C(c1ccccc1)(N1CCC[C@@H](O)C1)C(=O)N2` (stereo partly drawn) [Compound 2.17, 5-(3,5-dimethylisoxazol-4-yl)-3-((R)-3-hydroxypiperidin-1-yl)-3-phenylindolin-2-one]: 363 nM; for `Cc1noc(C)c1-c1ccc2c(c1)C(C1CCCCC1)(N1CCN(C)CC1)C(=O)N2` (stereo not drawn) [Compound 2.26, 3-cyclohexyl-5-(3,5-dimethylisoxazol-4-yl)-3-(4-methylpieprazin-1-yl)indolin-2-one]: 204 nM. Still for that read-out and setting: the same measure for `Cc1noc(C)c1-c1ccc2c(c1)C(C1CCCC1)(N1CCN(C)CC1)C(=O)N2` (stereo not drawn) [Compound 2.36, 3-cyclopentyl-5-(3,5-dimethylisoxazol-4-yl)-3-(4-methylpiperazin-1-yl)indolin-2-one]: 596 nM.

The values are drawn from patent US9393232B2 (BeiGene, Ltd., priority 2013, dated 2016).
